Measurements published in US10563214B2, “Use of micropeptides for promoting plant growth” (UNIVERSITE TOULOUSE III-PAUL SABATIER, priority 2014, dated 2020).
“Also recorded” adds a separate entry of the source.

How the values were obtained:
[1] = tested on: Arabidopsis thaliana; test: A. thaliana growth test, watering with miPEP164a; assay type: in vivo; details: watered and sprayed
Protocol: Watering was carried out every 2-3 days with water for the control plants and with water containing 0.1 μM or 1 μM of synthetic peptide (the sequence of which is identical to miPEP164a or to miPEP165a) for the test plants.

[2] = tested on: miR164a; test: Northern blot analysis of the accumulation of miR164a in roots treated with synthetic peptide; assay type: in vivo, Arabidopsis thaliana; details: 0.1 μM synthetic peptide solubilized in water vs water control, U6 loading control, FIG. 1
Protocol: The photographs show the results of a Northern blot analysis of the accumulation of miR164a in roots treated with water (control, photograph on the left) or with 0.1 μM of a synthetic peptide, having a sequence identical to that of miPEP164a, solubilized in water (0.1 μM miPEP164a). The RNA U6 is used as a loading control, allowing the quantity of miR164a to be quantified.
The A. thaliana Col-0 plants are cultivated on MS basic medium supplemented with 10 g/l of sucrose.
Northern blot analysis was carried out according to the protocol described in Lauressergues et al. Plant J, 72(3):512-22, 2012.
The biological samples were homogenized in a buffer containing 0.1 M of NaCl, 2% SDS, 50 mM of Tris-HCl (pH 9), 10 mM of EDTA (pH 8) and 20 mM of mercaptoethanol, and the RNA was extracted twice with a phenol/chloroform mixture and precipitated with ethanol.
The RNA was loaded on PAGE 15% gel and transferred onto a nylon membrane (HybondNX, Amersham). The RNA was hybridized with an oligonucleotide probe, with radioactive labelling at its end, for detecting the RNA U6 or for miR164a.
The hybridizations were carried out at 55° C. The hybridization signals were quantified using a phosphorimager (Fuji) and normalized with the signal of the probe specific to the RNA U6.

[3] = tested on: AtmiR319a; test: qPCR of AtmiR319a relative expression in plants overexpressing AtmiPEP319a; assay type: in vivo, Arabidopsis thaliana; details: plant overexpressing AtmiPEP319a (35S promoter) vs control plant; n=10; FIG. 7
Protocol: The error bar corresponds to the standard error of the mean (number of individuals=10).
The RNA was extracted using the reagent Tri-Reagent (MRC) according to the manufacturer's instructions, apart from precipitation of the RNA, which was carried out with 3 volumes of ethanol. Reverse transcription of the RNA was carried out using the stem-loop specific primer RTprimer in combination with hexamers in order to carry out reverse transcription of RNA of high molecular weight. Briefly, 1 μg of RNA was added to the stem-loop specific primer (0.2 μM), hexamer (500 ng), buffer RT (1×), the enzyme SuperScript Reverse transcriptase (SSIII) (one unit), dNTPs (0.2 mM each), DTT (0.8 mM) in a final reaction mixture of 25 μl. In order to carry out the reverse transcription, a pulsed reverse transcription reaction was carried out (40 repetitions of the following cycle: 16° C. for 2 minutes, 42° C. for one minute and 50° C. for one second, followed by final inactivation of the reverse transcription at 85° C. for 5 minutes).
The total RNA of the roots of M. truncatula or of the leaves of tobacco was extracted using the extraction kit RNeasy Plant Mini Kit (Qiagen). Reverse transcription was carried out using the reverse transcriptase SuperScript II (Invitrogen) starting from 500 ng of total RNA. Three repetitions (n=3) were carried out, each with two technical repetitions. […]

[4] = tested on: Arabidopsis thaliana; test: A. thaliana growth test, watering and spraying with miPEP319a; assay type: in vivo; details: 0.1 μM synthetic peptide, watered and sprayed, after 3 weeks of growth vs water control; FIG. 8
Protocol: Arabidopsis thaliana seeds were germinated on GiFi, and then were transferred onto compost and were grown for 3 weeks.
Watering was carried out every 2-3 days and spraying was carried out every day, with water for the control plants and with water containing 0.1 μM of synthetic peptide (the sequence of which is identical to miPEP319a) for the test plants.

[5] = 1 μM synthetic peptide, after 39 days of growth vs water control, FIG. 3

| Substance | plant growth ([1]; 0.1 μM synthetic peptide, after 3 weeks of growth vs water control, FIG. 2) | number of flowers [1, 5] | plant growth [1, 5] | accumulation of miR164a [2] | accumulation (relative expression) of AtmiR319a [3] | plant growth [4] |
| --- | --- | --- | --- | --- | --- | --- |
| miPEP164a: Peptide encoded by miORF on pri-miR164a of A. thaliana, SEQ ID NO: 2, MPSWHGMVLLPYVKHTHASTHTHTHNIYGCACELVFH (listed as Arabidopsis thaliana) | increases the plant's growth significantly; also recorded: increases the plants' growth significantly | increases the plant's growth and number of flowers significantly | increases the plant's growth and number of flowers significantly | increase in the accumulation of miR164a |  |  |
| miPEP319a: Peptide encoded by miORF on pri-miR319a of A. thaliana, SEQ ID NO: 10, MNIHTYHHLLFPSLVFHQSSDVPNALSLHIHTYEYIIVVIDPFRITLAFR (listed as Arabidopsis thaliana) |  |  |  |  | increase in the accumulation of Atmir319a | increases the plant's growth significantly |
